US8741578B2, “Methods of detecting chronic lymphocytic leukemia with Hsp90 and ZAP-70” (The Regents of the University of California, priority 2004, dated 2014)
“And” between values parts separate entries of the source, which are not always exact repeats. Identical values can stand only once. “Also recorded” adds a separate entry of the source. Like-named read-outs stand apart in the source and are kept apart here.

Key:
[1] = system: ZAP-70 in T cells; experiment: ZAP-70 expression in T cells after treatment (flow cytometry); assay type: cell-based, human
Experimental: Cells incubated in media with DMSO 1% final concentration were used as a control (⋄). ZAP-70 expression was evaluated by intracellular staining. […] The cells were stained with specific antibodies and analyze by flow cytometry.
Fluorochrome-conjugated monoclonal antibodies were used for flow cytometry. The samples were processed using a FACScalibur (Becton-Dickinson B D, Franklin Lakes, N.J.) and the data were analyzed using Flo-Jo 3.6 software (Stanford University-Tree Star Inc. San Francisco, Calif.).

[2] = system: ZAP-70 in CLL cells; experiment: ZAP-70 expression in CLL cells after treatment (intracellular staining, immunoblot); assay type: cell-based, human; details: for IC50: read-out: IC50, dose-dependent reduction of leukemia-cell ZAP-70 expression
Experimental: Cells incubated in media with DMSO 1% final concentration were used as a control (⋄). ZAP-70 expression was evaluated by intracellular staining. […] In addition, immunoblots were probed with anti-Hsp70 and anti-poly ADP-ribose polymerase (PARP-1) monoclonal antibodies. β-actin was used as a protein loading control. […] The cells were stained with specific antibodies and analyze by flow cytometry.
(§1) Protein lysates for immunoblot studies were prepared using RIPA buffer with protease inhibitors (10 μg/ml aprotinin, 10 μg/ml leupeptin, 10 μg/ml pepstatin and 1 mM phenylmethylsulfonyl fluoride), and in some cases phosphatase inhibitors (1 mM Na-Vanadate and 10 mM β-Glycerophosphate). Membranes were probed with antibodies as indicated. Detection was accomplished by chemiluminescence using horseradish peroxidase (HRP) conjugated antibodies followed by development with ECL Plus (Amersham-Biosciences Piscataway, N.J.) and autoradiography with Super RX film (Fuji, Tokyo, Japan)
(§2) Fluorochrome-conjugated monoclonal antibodies were used for flow cytometry. The samples were processed using a FACScalibur (Becton-Dickinson B D, Franklin Lakes, N.J.) and the data were analyzed using Flo-Jo 3.6 software (Stanford University-Tree Star Inc. San Francisco, Calif.). Apoptotic and viable cells were discriminated via flow cytometry with 3,3′ dihexyloxacarbocyanine iodide (DiOC6) (Molecular Probes, Eugene, Oreg.) and propidium iodide (Sigma, St. Louis, Mo.). Using this method viable cells exclude PI and stain brightly positive for DiOC6.

[3] = system: CLL cells; experiment: Apoptosis of primary CLL cells by flow cytometry (DiOC6/PI); details: 100 nM; for Apoptosis after treatment: ZAP-70+ CLL cells
Experimental: IgVH gene mutation was assessed by gene sequencing. Sequences with less than 98 percent homology to the corresponding germ-line IgVH sequence were considered mutated. […] Peripheral blood mononuclear cells (PBMC) from CLL patients were obtained from the CLL Research Consortium (CRC) tissue bank. […] ZAP-70 expression and IgVH gene mutational status were assessed. Cells were incubated in RPMI media at 37° C. with 5% CO2. […] Cell samples were incubated also in media with DMSO (1%) as a control.
as §2

[4] = system: B-cell receptor (BCR) signaling in ZAP-70+ CLL cells; experiment: B-cell receptor signaling after anti-μ stimulation in ZAP-70+ CLL cells (IP/immunoblot)
Experimental: Pxotein lysates were immunoprecipitated (IP) with specific anti-p72^Syk antibody and assessed by western blot (WB) for tyrosine phosphorylation using 4G10 antibody and p72^Syk expression. Protein lysates from the same samples were evaluated by western blot using the indicated antibodies. Activation of NF-κB was assessed by degradation of IκB-α.
Lysates were prepared as described above. Protein-A Sepharose beads (Zymed Laboratories Inc South San Francisco, Calif.) were pre-blocked with 5% BSA. The cell lysates were pre-cleared by incubating with 50 μl of protein-A Sepharose beads (50% slurry). To 100 μl of the pre-cleared cell lysate, either no antibody or antibodies to Hsp90, ZAP-70, p23, Hop, or p72^Syk were added, and incubated by rotating for 1 h at 4° C. Fifty μl of pre-cleared beads (50% slurry) were then added and incubated by rotating for 1 h at 4° C. Bound beads were centrifuged at 3,000×g and unbound samples were collected.
as §1

[5] = system: Purified native Hsp90 protein; details: read-out: IC50, inhibition of binding of Hsp90 to biotin-GM
Experimental: Valencia, Calif.) for 1 h at 4° C. Tubes were placed on a magnetic rack, and the unbound supernatant removed. The magnetic beads were washed in lysis buffer and heated for 5 min at 95° C. in SDS-PAGE sample buffer. Samples were analyzed on SDS protein gels, and immunoblots performed using the indicated antibodies. The band intensities in the immunoblots were assessed using the Bio-rad Fluor-S MultiImager, and the percentage inhibition of binding of Hsp90 to the biotin-GM calculated.

[6] = system: Hsp90 from ZAP-70-negative CLL cells, normal B and T cells; details: read-out: IC50, inhibition of binding of Hsp90 to biotin-GM; lysates from ZAP-70-negative CLL cells or normal T or B cells
Experimental: The binding affinity of the ligand is measured by its ability to inhibit the binding of geldanamycin, an inhibitor of Hsp90. The cell containing the Hsp90 is lysed in lysis buffer. The lysates are incubated with or without test agent and then incubated with biotin-geldanamycin linked to BioMag™ sreptavidin magnetic beads (Qiagen). The bound samples and the unbound supernatant can be separately collected and analyzed on SDS protein gels, and blotted using and Hsp90 antibody. The bands in the Western Blots may be quantitated using the Biorad Fluor-S MultiImager, and the percent inhibition of binding of Hsp90 to the biotin-geldanamycin calculated.
Tubes were placed on a magnetic rack, and the unbound supernatant removed. The magnetic beads were washed in lysis buffer and heated for 5 min at 95° C. in SDS-PAGE sample buffer. Samples were analyzed on SDS protein gels, and immunoblots performed using the indicated antibodies. The band intensities in the immunoblots were assessed using the Bio-rad Fluor-S MultiImager, and the percentage inhibition of binding of Hsp90 to the biotin-GM calculated.

[7] = system: CLL cells in whole blood; experiment: Whole blood apoptosis test of CLL subpopulation (DiOC6, anti-CD5/anti-CD19); details: different concentrations, room temperature
Experimental: For example, whole blood cells from patients with CLL or suspected of having CLL can be obtained. […] Red cells are lysed using ammonium-chloride buffer. The cells are stained with specific antibodies and DiOC6. Samples are analyzed by flow cytometry to show a density plot of cells labeled with anti-CD5 and anti-CD19.

[8] = system: Ad-ZAP-70 transduced CLL cells; experiment: Apoptosis of ZAP-70-negative CLL cells transduced with Ad-ZAP-70; assay type: cell-based, human; details: 100 nM, 48 hours after 48 hours of transduction; P≦0.001
Experimental: . (A) ZAP-70-negative leukemia cells were transduced with adenovirus expressing ZAP-70 (Ad-ZAP-70—solid histogram) and β-galactosidase (Ad-LacZ—bold line histogram). Cells were kept in media as a control (dashed line histogram). After 48 hours in culture Ad-ZAP-70 but not Ad-LacZ transduced cells expressed the ZAP-70 transgene (46% expression with a mean fluorescence intensity ratio (MFIR) of 2.8). (B) ZAP-70-negative CLL cells were transduced with adenovirus and after 48 hours they were harvested and lysed. Immunoprecipitations (IP) and immunoblots were performed with the antibodies indicated. […]
cDNA of ZAP-70 extracted from normal T cells was cloned into the CMV promoter and polyadenylation signal of pcDNA3. This construct was then subcloned into the shuttle vector MCS(SK)pXCX2. This shuttle vector was cotransfected with pJM17 into 293 cells using the calcium phosphate method.
Isolated adenovirus plaques were harvested and used to infect 293 cells. High titer adenovirus preparations were obtained. CLL cells were infected with either Ad-ZAP-70 or a control adenovirus vector (Ad-LacZ) for 48 hours at 37° C. using a multiplicity of infection (MOI) of 1000.
. ZAP-70-negative CLL cells were transduced with an adenovirus vector encoding ZAP-70 (Ad-ZAP-70) or β-galactosidase (Ad-LacZ) as a control. […]

## C=CCNC1=C2CC(C)CC(OC)C(O)C(C)/C=C(\C)C(OC(N)=O)C(OC)/C=C\C=C(/C)C(=O)NC(=CC1=O)C2=O (centres unmarked) [17-AAG, 17-allylamino-17-demethoxygeldanamycin]
[1]; T cells from CLL patients or healthy donors, even at ≧300 nM
  Effect on ZAP-70 expression in T cells: did not affect ZAP-70 expression levels in T cells
[1]; T cells, 300 nM, 48 hours, prior to treatment 210
  Post-treatment ZAP-70 mean fluorescence intensity (MFI): 190
[2]; CLL cells, 300 nM, 48 hours, prior to treatment 110
  Post-treatment ZAP-70 mean fluorescence intensity (MFI): 25
[2]; Homo sapiens, CLL cell, 24 h
  IC50: 60 nM
[3]; 48 hours, primary CLL cells, each table row is one patient sample (patient no. 1-25)
  17-AAG-induced apoptosis, %: 4.7% and 11.5% and 12.3% and 14.9% and 3.7% and 0.5% and 12.6% and 3.4% and 22.4% and 55.4% and 33.9% and 37.9% and 35.4% and 41.3% and 57.9% and 57.7% and 67.4% and 69.4% and 66.8% and 78.8% and 79.9% and 74.4% and 3.9% and 4.5% and 1.2%
[3]; 24 hours
  Apoptosis after treatment: 30%
[3]; 72 hours
  Apoptosis after treatment: 50%
[4]; ZAP-70+ CLL cells
  Effect on level/degradation of p72Syk, IKK-α: did not alter the level of p72^Syk; also recorded: did not induce degradation of p72^Syk or IKK-α
[4]; prior treatment for ≧24 hours
  Response to BCR ligation with anti-μ (p72Syk phosphorylation, IκB-α degradation): inert to stimulation with anti-μ antibody
[5]
  IC50: 600 nM
[6]
  IC50: ≥ 300 nM
[7]
  Induction of apoptosis in whole blood CLL subpopulation: exclusively in the ZAP-70 positive cells
[8]
  Apoptosis compared with non-transduced or Ad-LacZ transduced cells: significantly higher level of apoptosis

## CO[C@H]1/C=C\C=C(/C)C(=O)NC2=CC(=O)C(NCCN(C)C)=C(C[C@@H](C)C[C@H](OC)[C@H](O)[C@@H](C)/C=C(\C)[C@@H]1OC(N)=O)C2=O [17-DMAG, 17-(2-dimethylaminoethy)amino-17-demethoxygeldanamycin]
[2]; ZAP-70+ CLL cells, after 24 hours
  IC50: 60 nM
